# Test results published in PMC12461739, “Multi-targeted azacoumarin–cyanocinnamate hybrids induce G2/M arrest and apoptosis via tubulin, and COX-2/VEGFR modulation: insights from in vitro mechanistic basis and in vivo validation” (RSC Medicinal Chemistry, 2025).
# Values joined by “and” are separate entries in the source; they are usually repeats but may differ in a detail not shown here. Equal values may be shown once.
# Tests used:
# α-tubulin = test: Western blot of α-tubulin in MCF-7 cells; assay type: cell-based, human; settings: MCF-7, 7.653 μM (IC50)
# Protocol: Cells were lysed in RIPA buffer (Thermo Scientific, Cat. #89900) containing protease and phosphatase inhibitors, and lysates were centrifuged at 12 000 × g for 15 min at 4 °C. Protein concentrations were determined using the BCA assay (Thermo Scientific, Cat. #23225), and equal amounts (20–50 μg) were mixed with 2× Laemmli sample buffer (Bio-Rad, Cat. #1610737) and denatured at 95 °C for 5 min. Proteins were separated on SDS-PAGE gels (8–10% for α-tubulin, 12% for β-actin; Bio-Rad TGX™, Cat. #456-9033) and transferred to PVDF membranes (Immobilon-P, Millipore, Cat. #IPVH00010) using a wet transfer system (100 V, 1 h, 4 °C). Membranes were blocked with 5% non-fat milk in TBST for 1 h at room temperature and incubated overnight at 4 °C with anti-α-tubulin (1 : 1000, Cell Signaling Technology, Cat. #3873) and anti-β-actin (1 : 5000, Sigma-Aldrich, Cat. #A5441) antibodies. After washing, membranes were incubated with HRP-conjugated secondary antibodies ([…], Cell Signaling Technology) for 1 h at room temperature. Protein bands were visualized using the SuperSignal™ West Pico/Femto ECL substrate (Thermo Scientific, Cat. #34095) and imaged with a Bio-Rad ChemiDoc system. Band intensities were quantified by densitometry using ImageJ software and normalized to β-actin levels.[82–84]
# COX-1 = biological target: T1, COX-1 (Ovis aries, UniProt P05979); test: COX-1 inhibitor screening (fluorometric); assay type: biochemical; settings: read-out: IC50 toward COX-1
# T1 construct: purchased BioVision K548-100
# T1 sequence (P05979 25-600): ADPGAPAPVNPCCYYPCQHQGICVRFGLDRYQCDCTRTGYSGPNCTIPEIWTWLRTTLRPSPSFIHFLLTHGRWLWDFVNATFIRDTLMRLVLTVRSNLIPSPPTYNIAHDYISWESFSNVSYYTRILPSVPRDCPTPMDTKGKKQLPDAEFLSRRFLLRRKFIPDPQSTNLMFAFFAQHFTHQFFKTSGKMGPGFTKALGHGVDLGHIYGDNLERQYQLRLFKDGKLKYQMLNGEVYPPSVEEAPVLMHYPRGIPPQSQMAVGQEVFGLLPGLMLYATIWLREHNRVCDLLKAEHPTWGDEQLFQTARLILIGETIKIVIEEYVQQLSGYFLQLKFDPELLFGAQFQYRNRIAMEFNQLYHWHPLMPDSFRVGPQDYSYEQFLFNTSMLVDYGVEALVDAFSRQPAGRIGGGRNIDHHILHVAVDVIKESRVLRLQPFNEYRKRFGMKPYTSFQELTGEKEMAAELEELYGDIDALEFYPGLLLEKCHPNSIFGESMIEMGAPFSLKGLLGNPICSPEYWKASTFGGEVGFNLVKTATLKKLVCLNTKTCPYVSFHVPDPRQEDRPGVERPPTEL
# Protocol: COX-1 and COX-2 enzymes were reconstituted in sterile water (110 μL) and kept on ice until use. Arachidonic acid was activated by mixing 5 μL with 5 μL of NaOH, followed by a 10-fold dilution with water and vortexing. A reaction mixture (80 μL per well) was prepared by combining 76 μL of assay buffer, 1 μL of COX probe, 2 μL of 200-fold diluted COX cofactor, and 1 μL of COX-1 or COX-2 enzyme. This mix was added to each well, followed by 10 μL of the prepared arachidonic acid/NaOH solution to initiate the reaction. Fluorescence was recorded at 25 °C using a microplate reader. The percent inhibition was determined by comparing the fluorescence increase in treated wells relative to the enzyme control. IC50 values were calculated from the concentration–response curves using GraphPad Prism.
# Bax = test: qRT-PCR gene expression, Bax; assay type: cell-based, human; settings: MCF-7, 7.653 μM, 24 h
# Protocol: Untreated cells served as negative controls. RNA concentration and purity were verified spectrophotometrically prior to cDNA synthesis. Complementary DNA (cDNA) was synthesized from purified RNA using the RT^2 First Strand Kit (Qiagen, Valencia, CA, USA) following the supplied protocol. Quantitative real-time PCR (qRT-PCR) was performed on a Corbett Rotor-Gene 6000 system (Qiagen, USA) using the RT^2 SYBR® Green ROX™ FAST Master Mix (Qiagen). Each 25 μL reaction contained 12.5 μL of master mix, 1 μL of gene-specific primers (RT^2 qPCR Primer Assays, Qiagen), 1 μL of cDNA template, and 10.5 μL of RNase-free water. Gene-specific primers were selected using the PrimerBank database for BAX, BCL2, and TP53, along with GAPDH as the endogenous control (Table S3). Thermal cycling conditions were set as follows: initial enzyme activation at 95 °C for 10 minutes, followed by 40 cycles of denaturation at 95 °C for 15 seconds, and annealing at 60 °C for 30 seconds. Amplification specificity was confirmed by melting curve analysis. Gene expression levels were normalized to GAPDH mRNA as the internal reference, and relative quantification was performed using the ΔΔCt method. […] Statistical analysis was performed using GraphPad Prism software, with p < 0.05 considered statistically significant.[79]
# MCF-7 cells = test: Cell cycle analysis (PI flow cytometry); assay type: cell-based, human; settings: MCF-7, 7.653 μM (IC50), 24 h
# Protocol: Cell cycle progression was examined using a propidium iodide (PI)-based staining protocol, adapted from standard manufacturer instructions and previously described methods. MCF-7 cells were seeded at a density of 2 × 10^5 cells per well in DMEM and incubated overnight under standard conditions (37 °C, 5% CO2). […] A DMSO-treated group served as the vehicle control. After treatment, cells were collected, washed twice with cold phosphate-buffered saline (PBS), and centrifuged at 2000 rpm for 5 minutes. The pellets were fixed in pre-chilled 70% ethanol and stored at −20 °C for 2 hours. After fixation, cells were washed again with PBS, centrifuged, and resuspended in PI/RNase staining solution. Samples were incubated for 30 minutes at 37 °C in the dark to allow for RNA degradation and proper DNA staining. Flow cytometric analysis was conducted using a BD FACSCalibur™ system (BD Biosciences, USA). PI fluorescence was detected using a 488 nm excitation laser and collected through the FL2 channel (585 nm bandpass filter). Cell cycle phase distribution (G0/G1, S, and G2/M) was analyzed using dedicated software.
# [1] = test system: Ehrlich ascites carcinoma (EAC) cells; test: EAC model: viable EAC cell count and ascitic tumor volume; settings: for total viable EAC cell count: 10 days
# Protocol: To evaluate tumor burden in the experimental groups, ascitic fluid was collected from the peritoneal cavity using a sterile, graduated syringe. The volume of ascitic fluid was recorded for each animal. The collected fluid was then diluted with heparinized saline for viable cell counting. Cell viability and density were determined using the trypan blue exclusion method. A 0.4% (w/v) trypan blue solution was prepared by dissolving 0.4 g of dye in 100 mL of sterile distilled water and filtering it through a 0.22 μm membrane filter. Prior to counting, 10 μL of the ascitic cell suspension was mixed with an equal volume of trypan blue and incubated at room temperature for 2 minutes. Cells were loaded onto a hemocytometer (Thoma type, Germany) and examined under a light microscope at 40× magnification. Non-viable cells stained blue, whereas viable cells remained unstained. All measurements were performed in triplicate, and the results are expressed as mean ± SD.[93]
# On day 1, all groups were injected i.p. with 2.5 × 10^6 viable EAC cells in 200 μL of sterile saline. Group 1 (EAC control) received EAC cells only and no further treatment. […] The compound was administered i.p. every other day (i.e., on days 2, 4, 6, 8, and 10), for a total of five doses over a 10 day treatment period. At the end of the experiment (day 11), ascitic fluid was collected from the peritoneal cavity of each animal. The number and viability of EAC cells were assessed using the trypan blue exclusion assay. Each experiment was performed in triplicate and independently replicated on at least three separate occasions. The results were presented as mean ± SD. Statistical comparisons between groups were conducted using GraphPad Prism, with p < 0.05 considered significant.[95]
# On day 11, following the final treatment, ascitic fluid was collected from the peritoneal cavity using heparinized syringes for EAC cell viability and count analysis.
compound,measurement,setting,value
"CCOC(=O)/C(C#N)=C/c1ccc(Oc2c(C)c3cc(Br)c(O)c(Br)c3[nH]c2=O)cc1 [Compound 7, ethyl (E)-2-cyano-3-(4-((6,8-dibromo-7-hydroxy-4-methyl-2-oxo-1,2-dihydroquinolin-3-yl)oxy)phenyl)acrylate]",reduction of α-tubulin protein expression vs untreated control,α-tubulin,2.7 fold
same,IC50,COX-1,7.49 µM and 7.5 µM
same,Bax expression relative to untreated control,Bax,5.22 fold
same,cells in G2/M phase,MCF-7 cells; control 7.57%,36.21%
same,S-phase cells,MCF-7 cells; control 21.08%,15.75%
same,reduction in viable EAC cells,"[1]; 2.5 mg kg^−1, vs EAC control",53.27%
same,total viable EAC cell count,"[1]; 2.5 mg kg^−1 i.p. every two days, EAC control 199.33 ± 4.15",93.15 ± 7.19 × 10^6 cells
same,reduction in viable EAC cells,"[1]; 5 mg kg^−1, vs EAC control",65.41%
same,total viable EAC cell count,[1]; 5 mg kg^−1 i.p. every two days,68.95 ± 2.00 × 10^6 cells
same,reduction in viable EAC cells,"[1]; 7.5 mg kg^−1, vs EAC control",72.36%
same,total viable EAC cell count,[1]; 7.5 mg kg^−1 i.p. every two days,55.10 ± 2.15 × 10^6 cells
same,reduction in viable EAC cells,"[1]; 10 mg kg^−1, vs EAC control",85.92%
same,reduction of ascitic tumor volume,"[1]; 10 mg kg^−1, vs untreated EAC group",45.25%
same,average ascitic tumor volume,"[1]; 10 mg kg^−1, untreated EAC group 5.68 ± 0.15 mL",3.11 ± 0.45 mL
same,total viable EAC cell count,[1]; 10 mg kg^−1 i.p. every two days,28.06 ± 1.69 × 10^6 cells
same,reduction in viable EAC cells,"[1]; 15 mg kg^−1, vs EAC control",85.96%
same,total viable EAC cell count,[1]; 15 mg kg^−1 i.p. every two days,27.98 ± 0.39 × 10^6 cells
